Laboratory results as given in ChEMBL document CHEMBL1201862, “PubChem BioAssay data set” (2004).
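Where inhibition never reached the appropriate level, the endpoint shown equals the highest concentration tested. Otherwise, values were interpolated linearly from a five-concentration, 48-hour dose response in 96-well plates. GI50 is the concentration that inhibits growth by half.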 Active and inactive are the calls of the source. No stated cut-off is given here; in the data, active = GI50 up to about 1.1 µM and inactive = higher.

How the values were obtained:
Assay in all cases: NCI tumour cell line growth inhibition, 48 h
ACHN = test system: ACHN
EKVX = test system: EKVX
HCT-15 = test system: HCT-15
HL-60 = test system: HL-60
Hs-578T = test system: Hs-578T
IGROV-1 = test system: IGROV-1
MDA-MB-231 = test system: MDA-MB-231
MDA-MB-435 = test system: MDA-MB-435
MOLT-4 = test system: MOLT-4
Malme-3M = test system: Malme-3M
NCI-H460 = test system: NCI-H460
OVCAR-4 = test system: OVCAR-4
RXF 393 = test system: RXF 393
SK-MEL-28 = test system: SK-MEL-28
SK-MEL-2 = test system: SK-MEL-2
SK-OV-3 = test system: SK-OV-3
TK-10 = test system: TK-10
UO-31 = test system: UO-31
HOP-92 = test system: HOP-92
SR = test system: SR

Compound	GI50 (ACHN)	GI50 (EKVX)	GI50 (HCT-15)	GI50 (HL-60)	GI50 (Hs-578T)	GI50 (IGROV-1)	GI50 (MDA-MB-231)	GI50 (MDA-MB-435)	GI50 (MOLT-4)	GI50 (Malme-3M)	GI50 (NCI-H460)	GI50 (OVCAR-4)	GI50 (RXF 393)	GI50 (SK-MEL-28)	GI50 (SK-MEL-2)	GI50 (SK-OV-3)	GI50 (TK-10)	GI50 (UO-31)	GI50 (HOP-92)	GI50 (SR)
Cc1nc2c(cc1C(=O)N/N=C/c1ccc([N+](=O)[O-])cc1)c(=O)n(C)c(=O)n2C	> 100 µM (inactive)	91.2 µM (inactive)	> 100 µM	> 100 µM (inactive)	31.1 µM (inactive)	42.4 µM (inactive)	22.1 µM (inactive)	> 100 µM (inactive)	> 100 µM (inactive)	> 100 µM (inactive)	> 100 µM (inactive)	> 100 µM (inactive)	18.6 µM (inactive)	> 100 µM (inactive)	31.8 µM (inactive)	39.4 µM (inactive)	54.3 µM (inactive)	> 100 µM (inactive)		
O=C1CCCNn2c(nc3ncccc3c2=O)N1	> 100 µM (inactive)	> 100 µM (inactive)	> 100 µM	> 100 µM (inactive)	> 100 µM (inactive)	> 100 µM (inactive)	> 100 µM (inactive)	> 100 µM (inactive)	> 100 µM (inactive)	> 100 µM (inactive)	> 100 µM (inactive)	> 100 µM (inactive)	> 100 µM (inactive)		> 100 µM (inactive)	> 100 µM (inactive)	> 100 µM (inactive)	> 100 µM (inactive)	> 100 µM (inactive)	
COC(=O)/C=C/c1ccc2nncnc2c1.COC(=O)/C=C\c1ccc2nncnc2c1	> 100 µM (inactive)	> 100 µM (inactive)	29 µM	96.4 µM (inactive)	9.14 µM (inactive)	85.5 µM (inactive)	> 100 µM (inactive)	17.9 µM (inactive)	55.6 µM (inactive)		10 µM (inactive)	> 100 µM (inactive)		43.8 µM (inactive)	48.6 µM (inactive)	> 100 µM (inactive)	> 100 µM (inactive)	56.1 µM (inactive)		56.9 µM (inactive)
CC/C=C/C(CC)C/C(C)=C\[C@]1(CC)C[C@H](CC)[C@H](CC(=O)O)OO1 (stereo partly drawn)	0.265 µM (active)		0.416 µM	0.682 µM (active)	2.26 µM (inactive)	0.0612 µM (active)	1.76 µM (inactive)	1.46 µM (inactive)	0.151 µM (active)		0.171 µM (active)				1.74 µM (inactive)	1.9 µM (inactive)		0.0157 µM (active)		0.114 µM (active)
C=C1C[C@@H]2O[C@H]3[C@H]4[C@@H](C[C@@H](C)[C@@H](OC(C)=O)[C@H]42)[C@@H](C)CO[C@@]3(C)[C@H](OC(=O)CCCCCCC)CC1=O	16 µM (inactive)	15.5 µM (inactive)	14.1 µM		17.1 µM (inactive)	21.5 µM (inactive)	20.8 µM (inactive)	16.5 µM (inactive)	18.7 µM (inactive)		11.9 µM (inactive)			14.9 µM (inactive)	19.2 µM (inactive)		17.1 µM (inactive)	15.6 µM (inactive)	> 10 µM (inactive)	16 µM (inactive)
COc1ccc(-c2cc(-c3cc(C)cc(Br)c3O)no2)cc1	8.36 µM (inactive)	25.2 µM (inactive)	24.1 µM	47.9 µM (inactive)	4.86 µM (inactive)	10.8 µM (inactive)	12.4 µM (inactive)	15.9 µM (inactive)	13.5 µM (inactive)		5.58 µM (inactive)	3.37 µM (inactive)		18.7 µM (inactive)	22.2 µM (inactive)	6.3 µM (inactive)	19.8 µM (inactive)	12.5 µM (inactive)		67.5 µM (inactive)
O=C(c1ccsc1)c1nccc2c1cnc1ccccc12	> 100 µM (inactive)	15.6 µM (inactive)	> 100 µM	2.47 µM (inactive)	17 µM (inactive)	0.286 µM (active)	61 µM (inactive)	> 100 µM (inactive)	4.44 µM (inactive)	65.5 µM (inactive)	89.9 µM (inactive)	94.8 µM (inactive)	84.9 µM (inactive)	> 100 µM (inactive)	> 100 µM (inactive)	54.8 µM (inactive)	42.6 µM (inactive)	6.55 µM (inactive)	22.5 µM (inactive)	
CCOC(=O)C(CO)c1nc2c([nH]c1=O)c(=O)n(C)c(=O)n2C (stereo not drawn)	> 100 µM (inactive)	> 100 µM (inactive)	> 100 µM	> 100 µM (inactive)	> 100 µM (inactive)	> 100 µM (inactive)	> 100 µM (inactive)	> 100 µM (inactive)		> 100 µM (inactive)	> 100 µM (inactive)			> 100 µM (inactive)	> 100 µM (inactive)		> 100 µM (inactive)	> 100 µM (inactive)		> 100 µM (inactive)
O=C(SC1=NCCN1)c1cccc2ccccc12	66.8 µM (inactive)	28.3 µM (inactive)	48.6 µM	23.8 µM (inactive)	81.3 µM (inactive)	63.7 µM (inactive)	> 100 µM (inactive)	53.5 µM (inactive)	16.9 µM (inactive)	78.9 µM (inactive)	62.5 µM (inactive)	59.8 µM (inactive)	53.7 µM (inactive)	96.2 µM (inactive)	> 100 µM (inactive)	44.5 µM (inactive)	> 100 µM (inactive)	42.9 µM (inactive)	42.1 µM (inactive)	
O=C(O)c1cccc(F)c1C(=O)c1ccc2ccccc2c1	> 100 µM (inactive)	> 100 µM (inactive)	> 100 µM	> 100 µM (inactive)	> 100 µM (inactive)	> 100 µM (inactive)	> 100 µM (inactive)	> 100 µM (inactive)		> 100 µM (inactive)	> 100 µM (inactive)	> 100 µM (inactive)	> 100 µM (inactive)	> 100 µM (inactive)	> 100 µM (inactive)	> 100 µM (inactive)	> 100 µM (inactive)	> 100 µM (inactive)	> 100 µM (inactive)	
COC(=O)Nc1nc2cc(C(=O)c3ccc[nH]3)ccc2[nH]1			0.319 µM	0.0689 µM (active)	1.54 µM (inactive)	1.7 µM (inactive)	20.6 µM (inactive)	0.117 µM (active)	0.575 µM (active)	0.418 µM (active)	0.596 µM (active)	> 100 µM (inactive)	0.0895 µM (active)	0.711 µM (active)	0.353 µM (active)	2.03 µM (inactive)	1.67 µM (inactive)	1.21 µM (inactive)		
COc1ccc(-n2sc3ncc(C)cc3c2=O)cc1	18.3 µM (inactive)	18.3 µM (inactive)	18.4 µM		30.6 µM (inactive)	31.9 µM (inactive)	17 µM (inactive)	18.8 µM (inactive)	29.3 µM (inactive)	18.5 µM (inactive)	86.3 µM (inactive)	33.4 µM (inactive)		24.2 µM (inactive)	21.8 µM (inactive)	39.8 µM (inactive)	19.1 µM (inactive)	17.6 µM (inactive)	19.9 µM (inactive)	35.4 µM (inactive)
